Results taken from ChEMBL document CHEMBL1201862, “PubChem BioAssay data set” (2004).
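Grown in 96-well plates, cells were treated for 48 hours with each compound at five concentrations. Insufficient inhibition: endpoint recorded as highest concentration tested. At the GI50, growth is halved.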 The source made the active and inactive calls. Rule as the data show it: active = GI50 up to about 1.1 µM and inactive = higher.

Experiments:
Experiment in all cases: inhibition of tumour cell growth, NCI panel, 48 h
A498 = test system: A498
A549 = test system: A549
BT-549 = test system: BT-549
CAKI-1 = test system: CAKI-1
COLO 205 = test system: COLO 205
HL-60 = test system: HL-60
HOP-62 = test system: HOP-62
HT-29 = test system: HT-29
Hs-578T = test system: Hs-578T
KM12 = test system: KM12
LOX IMVI = test system: LOX IMVI
MDA-N = test system: MDA-N
Malme-3M = test system: Malme-3M
NCI/ADR-RES = test system: NCI/ADR-RES
PC-3 = test system: PC-3
SF-268 = test system: SF-268
SN12C = test system: SN12C
SNB-75 = test system: SNB-75
UACC-257 = test system: UACC-257

Measured: GI50

O=C1c2cc([N+](=O)[O-])ccc2-c2ccc3c4ccc5c6c(ccc(c7ccc1c2c73)c64)C(=O)c1cc([N+](=O)[O-])ccc1-5
inactive: A498 4.03 µM | A549 > 100 µM | BT-549 > 100 µM | CAKI-1 > 100 µM | COLO 205 > 100 µM | HL-60 > 100 µM | HOP-62 > 100 µM | HT-29 > 100 µM | Hs-578T > 100 µM | KM12 > 100 µM | LOX IMVI > 100 µM | MDA-N > 100 µM | Malme-3M > 100 µM | NCI/ADR-RES > 100 µM | PC-3 > 100 µM | SF-268 > 100 µM | SN12C > 100 µM | SNB-75 > 100 µM | UACC-257 > 100 µM

COc1ccc(/C=C(/c2ccccc2)c2c(C)cc(C)c(/C(=C\c3ccc(OC)cc3)c3ccccc3)c2/N=N/c2cc(C)cc(C)c2)cc1
inactive: A498 32.7 µM | A549 14.6 µM | BT-549 45.3 µM | CAKI-1 > 88.1 µM | COLO 205 8.04 µM | HL-60 10.3 µM | HOP-62 20.9 µM | HT-29 9.71 µM | Hs-578T 22.5 µM | KM12 9.64 µM | LOX IMVI 24.2 µM | MDA-N 24 µM | Malme-3M 17.9 µM | NCI/ADR-RES > 100 µM | PC-3 9.89 µM | SF-268 39.9 µM | SN12C 8.47 µM | SNB-75 6.92 µM | UACC-257 7.69 µM

N#CC1=C(S)N(C2OC(CO)C(O)C(O)C2O)C(c2ccccc2)=CC1c1ccco1 (stereo unspecified)
inactive: A498 71.6 µM | A549 46.1 µM | BT-549 > 100 µM | CAKI-1 38.8 µM | COLO 205 > 10 µM | HL-60 > 100 µM | HOP-62 44.6 µM | HT-29 > 100 µM | Hs-578T 56.5 µM | KM12 41.9 µM | LOX IMVI 23.2 µM | MDA-N 93.3 µM | Malme-3M 81.7 µM | NCI/ADR-RES > 100 µM | PC-3 47.4 µM | SF-268 > 100 µM | SN12C 40.5 µM | SNB-75 16.6 µM | UACC-257 97.1 µM

Cn1c2ccccc2c2c(=S)c3ccccc3ccc21
inactive: A498 > 100 µM | A549 71.4 µM | BT-549 > 100 µM | CAKI-1 > 100 µM | COLO 205 67.3 µM | HL-60 > 100 µM | HOP-62 79.6 µM | HT-29 63.4 µM | Hs-578T > 100 µM | KM12 55.7 µM | LOX IMVI 62.1 µM | MDA-N > 100 µM | Malme-3M > 100 µM | NCI/ADR-RES > 100 µM | PC-3 59.4 µM | SF-268 > 100 µM | SN12C > 100 µM | SNB-75 24.6 µM | UACC-257 > 100 µM
